Laboratory results published in ChEMBL document CHEMBL1201862, “PubChem BioAssay data set” (2004).
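Dose response: 5 concentrations. Exposure: 48 h. Format: 96-well plates. Endpoint: linear interpolation; highest concentration if not reached. GI50 is the concentration that inhibits growth by half.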 Activity calls are given as the source filed them. No stated cut-off is given here; in the data, active = GI50 up to about 1.1 µM and inactive = higher.

How the values were obtained:
Test in all cases: NCI anticancer screen, dose series, 48 h
786-0 = tested on: 786-0
A498 = tested on: A498
A549 = tested on: A549
ACHN = tested on: ACHN
BT-549 = tested on: BT-549
CAKI-1 = tested on: CAKI-1
CCRF-CEM = tested on: CCRF-CEM
COLO 205 = tested on: COLO 205
DU-145 = tested on: DU-145
EKVX = tested on: EKVX
HCC 2998 = tested on: HCC 2998
HCT-116 = tested on: HCT-116
HCT-15 = tested on: HCT-15
HL-60 = tested on: HL-60
HOP-62 = tested on: HOP-62
HOP-92 = tested on: HOP-92
KM12 = tested on: KM12
LOX IMVI = tested on: LOX IMVI
M14 = tested on: M14
MCF7 = tested on: MCF7
MDA-MB-435 = tested on: MDA-MB-435
MDA-N = tested on: MDA-N
MOLT-4 = tested on: MOLT-4
NCI-H23 = tested on: NCI-H23
NCI-H460 = tested on: NCI-H460
NCI/ADR-RES = tested on: NCI/ADR-RES
OVCAR-3 = tested on: OVCAR-3
OVCAR-4 = tested on: OVCAR-4
OVCAR-5 = tested on: OVCAR-5
OVCAR-8 = tested on: OVCAR-8
PC-3 = tested on: PC-3
RPMI-8226 = tested on: RPMI-8226
RXF 393 = tested on: RXF 393
SF-295 = tested on: SF-295
SK-MEL-28 = tested on: SK-MEL-28
SK-MEL-2 = tested on: SK-MEL-2
SK-MEL-5 = tested on: SK-MEL-5
SK-OV-3 = tested on: SK-OV-3
SN12C = tested on: SN12C
SNB-19 = tested on: SNB-19
SNB-75 = tested on: SNB-75
SW-620 = tested on: SW-620
T47D = tested on: T47D
TK-10 = tested on: TK-10
U-251 = tested on: U-251
UACC-257 = tested on: UACC-257
UACC-62 = tested on: UACC-62
UO-31 = tested on: UO-31
HT-29 = tested on: HT-29
IGROV-1 = tested on: IGROV-1
K562 = tested on: K562
MDA-MB-231 = tested on: MDA-MB-231
Malme-3M = tested on: Malme-3M
NCI-H226 = tested on: NCI-H226
NCI-H522 = tested on: NCI-H522
SF-268 = tested on: SF-268
SR = tested on: SR
SF-539 = tested on: SF-539
Hs-578T = tested on: Hs-578T

Measured: GI50

C[C@@H]1C(=O)O[C@H]1[C@H](O)CO
inactive: 786-0 > 100 µM | A498 > 100 µM | A549 > 100 µM | ACHN > 100 µM | BT-549 > 100 µM | CAKI-1 > 100 µM | CCRF-CEM > 100 µM | COLO 205 > 100 µM | DU-145 > 100 µM | EKVX > 100 µM | HCC 2998 > 100 µM | HCT-116 > 100 µM | HL-60 > 100 µM | HOP-62 > 100 µM | HOP-92 63.1 µM | KM12 > 100 µM | LOX IMVI > 100 µM | M14 > 100 µM | MCF7 > 100 µM | MDA-MB-435 > 100 µM | MDA-N > 100 µM | MOLT-4 34.1 µM | NCI-H23 > 100 µM | NCI-H460 > 100 µM | NCI/ADR-RES > 100 µM | OVCAR-3 > 100 µM | OVCAR-4 > 100 µM | OVCAR-5 > 100 µM | OVCAR-8 > 100 µM | PC-3 > 100 µM | RPMI-8226 94.2 µM | RXF 393 > 100 µM | SF-295 > 100 µM | SK-MEL-28 > 100 µM | SK-MEL-2 > 100 µM | SK-MEL-5 > 100 µM | SK-OV-3 > 100 µM | SN12C > 100 µM | SNB-19 > 100 µM | SNB-75 > 100 µM | SW-620 > 100 µM | T47D > 100 µM | TK-10 > 100 µM | U-251 > 100 µM | UACC-257 > 100 µM | UACC-62 > 100 µM | UO-31 > 10 µM
> 100 µM: HCT-15

COC(=O)c1cc(O)nc(O)n1
inactive: 786-0 > 100 µM | A498 > 100 µM | A549 > 100 µM | ACHN > 100 µM | BT-549 > 100 µM | CAKI-1 > 100 µM | DU-145 > 100 µM | EKVX > 100 µM | HCT-116 > 100 µM | HL-60 > 100 µM | HOP-62 > 100 µM | HOP-92 > 100 µM | HT-29 > 100 µM | IGROV-1 > 100 µM | K562 > 100 µM | LOX IMVI > 100 µM | M14 > 100 µM | MDA-MB-231 > 100 µM | MDA-MB-435 > 100 µM | MDA-N > 100 µM | MOLT-4 > 100 µM | Malme-3M > 100 µM | NCI-H226 > 100 µM | NCI-H23 > 100 µM | NCI-H460 > 100 µM | NCI-H522 > 100 µM | NCI/ADR-RES > 100 µM | OVCAR-3 > 100 µM | OVCAR-4 > 100 µM | OVCAR-5 > 100 µM | OVCAR-8 > 100 µM | PC-3 > 100 µM | RXF 393 > 100 µM | SF-268 > 100 µM | SF-295 > 100 µM | SK-MEL-28 > 100 µM | SK-MEL-2 > 100 µM | SK-MEL-5 > 100 µM | SN12C > 100 µM | SNB-19 > 100 µM | SNB-75 > 100 µM | SR > 100 µM | SW-620 > 100 µM | T47D > 100 µM | TK-10 > 100 µM | U-251 > 100 µM | UACC-257 > 100 µM | UACC-62 > 100 µM | UO-31 > 100 µM
> 100 µM: HCT-15

CCOC(CI)O[C@@H]1C=C[C@H](OC(C)=O)C1 (some centres not stated)
> 100 µM: HCT-15
inactive: 786-0 > 100 µM | A498 > 100 µM | A549 > 100 µM | ACHN > 100 µM | BT-549 > 100 µM | CAKI-1 60.7 µM | CCRF-CEM > 100 µM | COLO 205 > 100 µM | DU-145 > 100 µM | EKVX > 100 µM | HCC 2998 > 100 µM | HCT-116 > 100 µM | HOP-62 84.7 µM | HT-29 > 100 µM | K562 > 100 µM | KM12 30.1 µM | M14 > 100 µM | MCF7 > 100 µM | MDA-MB-231 > 100 µM | MDA-MB-435 > 100 µM | MDA-N > 100 µM | MOLT-4 > 100 µM | Malme-3M > 100 µM | NCI-H226 > 100 µM | NCI-H23 > 100 µM | NCI-H460 > 100 µM | NCI/ADR-RES > 100 µM | OVCAR-3 33.7 µM | OVCAR-4 > 100 µM | OVCAR-5 > 100 µM | OVCAR-8 > 100 µM | PC-3 > 100 µM | RPMI-8226 > 100 µM | RXF 393 > 100 µM | SF-268 > 100 µM | SF-295 > 100 µM | SF-539 > 100 µM | SK-MEL-28 > 100 µM | SK-MEL-2 > 100 µM | SK-OV-3 > 100 µM | SN12C > 100 µM | SNB-19 > 100 µM | SNB-75 > 100 µM | SW-620 > 100 µM | T47D > 100 µM | U-251 > 100 µM | UACC-257 > 100 µM | UACC-62 > 100 µM | UO-31 > 100 µM

O=C(NC(Cc1c[nH]c2ccccc12)C(=O)Nc1ccc(Br)cc1)OCc1ccccc1 (configuration not stated)
11.1 µM: HCT-15
inactive: 786-0 10.8 µM | A498 11.4 µM | A549 9.16 µM | ACHN 10.2 µM | BT-549 14.8 µM | CAKI-1 5.27 µM | CCRF-CEM 3.6 µM | COLO 205 12.1 µM | DU-145 13.3 µM | EKVX 6.59 µM | HCC 2998 11 µM | HCT-116 9.82 µM | HL-60 3.97 µM | HOP-62 11 µM | HOP-92 5.18 µM | HT-29 6.19 µM | Hs-578T 18.9 µM | IGROV-1 9.12 µM | K562 6.82 µM | KM12 6.31 µM | LOX IMVI 9.06 µM | M14 11.8 µM | MCF7 10.4 µM | MDA-MB-231 10.2 µM | MDA-MB-435 8.83 µM | MOLT-4 4.53 µM | Malme-3M 11.4 µM | NCI-H226 14.5 µM | NCI-H23 11.8 µM | NCI-H460 6.22 µM | NCI-H522 10.1 µM | NCI/ADR-RES 12.1 µM | OVCAR-3 11.6 µM | OVCAR-4 9.14 µM | OVCAR-5 17.2 µM | OVCAR-8 13.6 µM | PC-3 10.4 µM | RPMI-8226 6.38 µM | RXF 393 9.33 µM | SF-268 12.7 µM | SF-295 9.23 µM | SF-539 15.3 µM | SK-MEL-28 14.3 µM | SK-MEL-2 6.56 µM | SK-MEL-5 10.7 µM | SK-OV-3 14.1 µM | SN12C 9.46 µM | SNB-19 21.1 µM | SNB-75 14.7 µM | SR 6.95 µM | SW-620 16 µM | T47D 10 µM | TK-10 14.9 µM | U-251 12 µM | UACC-257 11.3 µM | UACC-62 10.1 µM | UO-31 9.1 µM

NN/C(=N\c1ccc(Cl)cc1)NS(=O)(=O)c1ccc(S(=O)(=O)c2ccccc2)s1
22 µM: HCT-15
inactive: 786-0 21.4 µM | A498 49.1 µM | A549 20.1 µM | ACHN 16.8 µM | BT-549 26.4 µM | CAKI-1 27.7 µM | COLO 205 17 µM | DU-145 21.8 µM | EKVX 11 µM | HCT-116 14.8 µM | HL-60 24.2 µM | HOP-62 41.2 µM | HOP-92 18.6 µM | HT-29 18.6 µM | IGROV-1 19 µM | K562 10.9 µM | KM12 9.79 µM | LOX IMVI 15.3 µM | M14 15.8 µM | MCF7 22.2 µM | MDA-MB-231 33.3 µM | MDA-N 13.7 µM | MOLT-4 9.16 µM | NCI-H226 40.6 µM | NCI-H23 20.4 µM | NCI-H460 17.2 µM | NCI/ADR-RES 18.5 µM | OVCAR-3 20.6 µM | OVCAR-4 21.1 µM | OVCAR-5 37.6 µM | OVCAR-8 30.3 µM | PC-3 25.5 µM | RPMI-8226 21.2 µM | RXF 393 15.5 µM | SF-295 8.79 µM | SF-539 39.4 µM | SK-MEL-28 46.7 µM | SK-MEL-2 19.1 µM | SK-MEL-5 19.2 µM | SK-OV-3 71.9 µM | SN12C 22.6 µM | SNB-19 38.3 µM | SR 16 µM | SW-620 38.6 µM | T47D 8.17 µM | TK-10 26.7 µM | U-251 29 µM | UACC-257 18 µM | UACC-62 7.21 µM | UO-31 23.7 µM
